Several values for one entry are separate records, joined by “and”; a condition that tells them apart may be missing. Equal entries are not always repeated. Toxic doses and inconclusive results are not listed. No stated cut-off is given here; in the data, active means T/C of 150% or more; inactive means T/C below 125%.
Test system: L1210 leukemia ip in BDF1 mice, survival T/C
Assay: NCI In Vivo Anticancer Drug Screen. Data for tumor model L1210 Leukemia (intraperitoneal) in B6D2F1 (BDF1) mice
Conditions: endpoint: mean survival time, higher = longer survival
In short: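 Transplantable tumor model; survival measured in treated vs vehicle control mice. Value = treated/control.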

[1] = dose: 100.0 mg/kg/injection, schedule: Q01DX009 (ip), vehicle: saline with Tween-80
[2] = dose: 200.0 mg/kg/injection, schedule: Q01DX009 (ip), vehicle: saline with Tween-80
[3] = dose: 100.0 mg/kg/injection, schedule: Q01DX001 (ip), vehicle: carboxymethylcellulose (CMC)
[4] = dose: 200.0 mg/kg/injection, schedule: Q01DX001 (ip), vehicle: carboxymethylcellulose (CMC)
[5] = dose: 400.0 mg/kg/injection, schedule: Q01DX001 (ip), vehicle: carboxymethylcellulose (CMC)
[6] = dose: 100.0 mg/kg/injection, schedule: Q04DX003 (ip), vehicle: saline
[7] = dose: 100.0 mg/kg/injection, schedule: Q04DX003 (ip), vehicle: saline with Tween-80
[8] = dose: 200.0 mg/kg/injection, schedule: Q04DX003 (ip), vehicle: saline with Tween-80
[9] = dose: 400.0 mg/kg/injection, schedule: Q04DX003 (ip), vehicle: saline with Tween-80
[10] = dose: 25.0 mg/kg/injection, schedule: Q01DX001 (ip), vehicle: saline with Tween-80
[11] = dose: 25.0 mg/kg/injection, schedule: Q04DX002 (ip), vehicle: Klucel (hydroxypropylcellulose) (HPC)
[12] = dose: 50.0 mg/kg/injection, schedule: Q01DX001 (ip), vehicle: saline with Tween-80
[13] = dose: 50.0 mg/kg/injection, schedule: Q04DX002 (ip), vehicle: Klucel (hydroxypropylcellulose) (HPC)
[14] = dose: 100.0 mg/kg/injection, schedule: Q01DX001 (ip), vehicle: saline
[15] = dose: 200.0 mg/kg/injection, schedule: Q01DX001 (ip), vehicle: saline
[16] = dose: 50.0 mg/kg/injection, schedule: Q01DX001 (ip), vehicle: saline
[17] = dose: 400.0 mg/kg/injection, schedule: Q01DX001 (ip), vehicle: saline

Measured: T/C

Oc1ccc(Cl)cc1Cc1cc(Cl)cc(Cc2cc(Cl)ccc2O)c1O
inactive: dose: 12.5 mg/kg/injection, schedule: Q01DX009 (ip), vehicle: saline with Tween-80 98 % of control | dose: 25.0 mg/kg/injection, schedule: Q01DX009 (ip), vehicle: saline with Tween-80 102 % of control | dose: 50.0 mg/kg/injection, schedule: Q01DX009 (ip), vehicle: saline with Tween-80 109 % of control

CC(C)CC(Br)C(=O)NCC(=O)NC(Cc1ccccc1)C(=O)O (stereo unspecified)
inactive: [1] 96 % of control | [2] 93 % of control

CC1OC(OC2C(O)C(O)C(O)C(O)C2O)C(N)CC1N=C(N)C(=O)O (stereo unspecified)
inactive: [3] 90 % of control | [4] 96 % of control | [5] 100 % of control

O=c1[nH]c(=S)[nH]c(=S)[nH]1
inactive: dose: 100.0 mg/kg/injection, schedule: Q01DX Z (ip), vehicle: methylcellulose (MC) 97 % of control | dose: 200.0 mg/kg/injection, schedule: Q01DX Z (ip), vehicle: methylcellulose (MC) 104 % of control

CCCC1(c2ccsc2)NC(=O)NC1=O (stereo unspecified)
inactive: [3] 98 % of control | [4] 98 % of control | [5] 90 % of control

NCCCC1C(CN)C2CC1C1C3CCC(C3)C21 (stereo unspecified)
inactive: dose: 3.12 mg/kg/injection, schedule: Q04DX003 (ip), vehicle: saline 100 % of control | dose: 6.25 mg/kg/injection, schedule: Q04DX003 (ip), vehicle: saline 100 % of control | dose: 12.5 mg/kg/injection, schedule: Q01DX009 (ip), vehicle: saline 106 % of control | dose: 12.5 mg/kg/injection, schedule: Q04DX003 (ip), vehicle: saline 97 % of control | dose: 25.0 mg/kg/injection, schedule: Q01DX009 (ip), vehicle: saline 110 % of control | dose: 25.0 mg/kg/injection, schedule: Q04DX003 (ip), vehicle: saline 97 % of control and 103 % of control | dose: 50.0 mg/kg/injection, schedule: Q01DX009 (ip), vehicle: saline 106 % of control | dose: 50.0 mg/kg/injection, schedule: Q04DX003 (ip), vehicle: saline 105 % of control | [6] 98 % of control

CCCC(=O)Nc1ccc(O)cc1
inactive: [1] 100 % of control | [7] 96 % of control | [2] 110 % of control | [8] 101 % of control | dose: 266.0 mg/kg/injection, schedule: Q01DX009 (ip), vehicle: saline with Tween-80 109 % of control | [9] 106 % of control

COC(=O)c1ccccc1C[P+](c1ccccc1)(c1ccccc1)c1ccccc1
inactive: dose: 0.75 mg/kg/injection, schedule: Q01DX001 (ip), vehicle: saline with Tween-80 90 % of control | dose: 0.75 mg/kg/injection, schedule: Q01DX009 (ip), vehicle: saline 91 % of control | dose: 0.75 mg/kg/injection, schedule: Q04DX003 (ip), vehicle: saline 108 % of control | dose: 1.5 mg/kg/injection, schedule: Q01DX001 (ip), vehicle: saline with Tween-80 101 % of control | dose: 1.5 mg/kg/injection, schedule: Q01DX009 (ip), vehicle: saline 102 % of control | dose: 1.5 mg/kg/injection, schedule: Q04DX003 (ip), vehicle: saline 106 % of control | dose: 3.0 mg/kg/injection, schedule: Q01DX001 (ip), vehicle: saline with Tween-80 100 % of control and 106 % of control | dose: 3.0 mg/kg/injection, schedule: Q01DX009 (ip), vehicle: saline 94 % of control | dose: 3.0 mg/kg/injection, schedule: Q04DX003 (ip), vehicle: saline 116 % of control | dose: 3.12 mg/kg/injection, schedule: Q01DX009 (ip), vehicle: saline 100 % of control and 106 % of control | dose: 6.0 mg/kg/injection, schedule: Q01DX001 (ip), vehicle: saline with Tween-80 101 % of control | dose: 6.25 mg/kg/injection, schedule: Q01DX009 (ip), vehicle: saline with Tween-80 97 % of control and 111 % of control | dose: 6.25 mg/kg/injection, schedule: Q01DX009 (ip), vehicle: saline 100 % of control and 91 % of control | dose: 12.5 mg/kg/injection, schedule: Q04DX002 (ip), vehicle: Klucel (hydroxypropylcellulose) (HPC) 102 % of control | [10] 98 % of control | [11] 88 % of control | dose: 25.0 mg/kg/injection, schedule: Q04DX002 (ip), vehicle: saline with Tween-80 104 % of control and 88 % of control | [12] 106 % of control | [13] 102 % of control

N#Cc1[nH]cnc1NN=NCCCl
inactive: dose: 12.5 mg/kg/injection, schedule: Q01DX001 (ip), vehicle: saline with Tween-80 109 % of control | [10] 104 % of control | [12] 116 % of control | dose: 100.0 mg/kg/injection, schedule: Q01DX001 (ip), vehicle: saline with Tween-80 118 % of control

O=C(COc1ccc(Cl)cc1C(=O)O)Nc1ccccc1
inactive: dose: 100.0 mg/kg/injection, schedule: Q04DX003 (ip), vehicle: Klucel (hydroxypropylcellulose) (HPC) 93 % of control | dose: 200.0 mg/kg/injection, schedule: Q04DX003 (ip), vehicle: Klucel (hydroxypropylcellulose) (HPC) 102 % of control | dose: 400.0 mg/kg/injection, schedule: Q04DX003 (ip), vehicle: Klucel (hydroxypropylcellulose) (HPC) 98 % of control

Cc1[nH]c(=O)ncc1CCOCc1ccccc1
inactive: [3] 104 % of control | [4] 109 % of control | [5] 104 % of control

CC(=O)Nc1ccc(Cc2ccc(N)cc2)cc1
inactive: [14] 108 % of control | [15] 104 % of control

S=c1nc[nH]c2c1ncn2C1OC(COCc2ccccc2)C(OCc2ccccc2)C1OCc1ccccc1 (stereo unspecified)
inactive: [16] 93 % of control | [14] 102 % of control | [15] 93 % of control | [17] 96 % of control

CCSc1nc2ccccc2s1
inactive: dose: 100.0 mg/kg/injection, schedule: Q01DX001 (ip), vehicle: other 93 % of control | dose: 200.0 mg/kg/injection, schedule: Q01DX001 (ip), vehicle: other 98 % of control

CC(C)c1oc(=O)cc2c1C(O)C1OC(=O)C3(C)C(O)C4OC4C2(C)C13 (stereo unspecified)
inactive: dose: 25.0 mg/kg/injection, schedule: Q01DX009 (ip), vehicle: Klucel (hydroxypropylcellulose) (HPC) 109 % of control | dose: 50.0 mg/kg/injection, schedule: Q01DX009 (ip), vehicle: Klucel (hydroxypropylcellulose) (HPC) 116 % of control | dose: 100.0 mg/kg/injection, schedule: Q01DX009 (ip), vehicle: Klucel (hydroxypropylcellulose) (HPC) 106 % of control and 88 % of control

COc1ccc(CC(=O)Cc2ccc(OC)c(OC)c2)cc1OC
inactive: [1] 93 % of control | [7] 100 % of control | [2] 98 % of control | [8] 108 % of control | dose: 400.0 mg/kg/injection, schedule: Q01DX009 (ip), vehicle: saline with Tween-80 102 % of control | [9] 100 % of control

CCOC(=O)/C(C#N)=C\c1ccc2n1Cc1cc3c(cc1N(C(C)=O)C2)OCO3
inactive: [11] 102 % of control | [13] 95 % of control | dose: 100.0 mg/kg/injection, schedule: Q04DX002 (ip), vehicle: Klucel (hydroxypropylcellulose) (HPC) 98 % of control

C=C(C)CON=C(c1ccccc1)c1ccccc1
inactive: [6] 92 % of control | dose: 200.0 mg/kg/injection, schedule: Q04DX003 (ip), vehicle: saline 96 % of control | dose: 400.0 mg/kg/injection, schedule: Q04DX003 (ip), vehicle: saline 97 % of control

CC(=O)Nc1ccnc(=O)[nH]1
inactive: dose: 75.0 mg/kg/injection, schedule: Q01DX001 (ip), vehicle: saline 106 % of control | dose: 150.0 mg/kg/injection, schedule: Q01DX001 (ip), vehicle: saline 95 % of control

CC(C)NC(N)=O
inactive: dose: 87.5 mg/kg/injection, schedule: Q01DX009 (ip), vehicle: saline 101 % of control | dose: 175.0 mg/kg/injection, schedule: Q01DX009 (ip), vehicle: saline 101 % of control | dose: 350.0 mg/kg/injection, schedule: Q01DX009 (ip), vehicle: saline 101 % of control

CC1(C)C2CCC1(C)C(C(=O)C(F)(F)F)C2=O.CC1(C)C2CCC1(C)C(C(=O)C(F)(F)F)C2=O.[Co] (stereo unspecified)
inactive: dose: 100.0 mg/kg/injection, schedule: Q04DX002 (ip), vehicle: saline 110 % of control | dose: 200.0 mg/kg/injection, schedule: Q04DX002 (ip), vehicle: saline 94 % of control

CC1CC(C)(C)OB(OC(C)CC(C)(C)OB2OC(C)CC(C)(C)O2)O1 (stereo unspecified)
inactive: [16] 102 % of control | [14] 107 % of control | [15] 96 % of control | [17] 107 % of control

Source: PubChem BioAssay AID248 (DTP/NCI, 2004)
